Measured values: patent US5623049A (Bayer Aktiengesellschaft, priority 1993, dated 1997)

How the values were obtained:
Proteinase K = Proteinase K (Parengyodontium album, UniProt P06873); experiment: Stability towards proteases: Proteinase K; assay type: in vitro ADME; conditions: 75 μg of oligomer, 5 μl of protease, 37° C., 3 hours; PAGE, UV shadowing, silver staining; note: key: '+' denotes stability; no enzymic degradation
Description: (§1) Subsequently, the gel was analysed by UV shadowing.

Pronase E = experiment: Stability towards proteases: Pronase E; assay type: in vitro ADME; conditions: 75 μg of oligomer, 5 μl of protease, 37° C., 3 hours; PAGE, UV shadowing, silver staining; note: key: '+' denotes stability; no enzymic degradation
Description: as §1

Trypsin = experiment: Stability towards proteases: Trypsin; assay type: in vitro ADME; conditions: 75 μg of oligomer, 5 μl of protease, 37° C., 3 hours; PAGE, UV shadowing, silver staining; note: key: '+' denotes stability; no enzymic degradation
Description: as §1

Endoprotease LYS--C = Endoprotease LYS--C (Lysobacter enzymogenes, UniProt Q7M135); experiment: Stability towards proteases: Endoprotease LYS--C; assay type: in vitro ADME; conditions: 75 μg of oligomer, 5 μl of protease, 37° C., 3 hours; PAGE, UV shadowing, silver staining; note: key: '+' denotes stability; no enzymic degradation
Endoprotease LYS--C, sequence (Q7M135 whole entry): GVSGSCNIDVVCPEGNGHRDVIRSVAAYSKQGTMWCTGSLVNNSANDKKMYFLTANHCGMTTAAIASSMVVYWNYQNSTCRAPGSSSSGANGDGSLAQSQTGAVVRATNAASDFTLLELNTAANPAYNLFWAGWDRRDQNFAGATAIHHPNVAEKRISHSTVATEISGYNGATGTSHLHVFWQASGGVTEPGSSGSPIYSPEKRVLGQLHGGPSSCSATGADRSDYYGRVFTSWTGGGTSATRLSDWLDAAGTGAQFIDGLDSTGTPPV
Description: as §1

Protease XXI = experiment: Stability towards proteases: Protease XXI; assay type: in vitro ADME; conditions: 75 μg of oligomer, 5 μl of protease, 37° C., 3 hours; PAGE, UV shadowing, silver staining; note: key: '+' denotes stability; no enzymic degradation
Description: as §1

Protease IX = experiment: Stability towards proteases: Protease IX; assay type: in vitro ADME; conditions: 75 μg of oligomer, 5 μl of protease, 37° C., 3 hours; PAGE, UV shadowing, silver staining; note: key: '+' denotes stability; no enzymic degradation
Description: as §1

[1] = Stability towards proteases: extracts of T-lymphocyte cells; assay type: in vitro ADME; conditions: 75 μg of oligomer, 5 μl of extract, protease buffer, 37° C., 3 hours; note: key: '+' denotes stability; no enzymic degradation
Description: (§2) Cell extracts from T lymphocytes and blood were also employed for the stability investigations in addition to the purified, defined proteases. For this purpose, 50 ml of cell suspension were centrifuged down at 2000 rpm, taken up in 500 μl of Tris/HCl buffer, pH 7.5; 40 mM CaCl2, and lysed with 5 μl of 20% SDS. Following dialysis against 0.1 M Tris/HCl, pH 7.5; 40 mM CaCl2, and a change of buffer after 4 hours, 5 μl were employed directly in the test. Blood was lysed directly with doubly distilled H2 O and 5 μl were then employed in the test. Bovine serine albumin (BSA) and lysozyme were used as positive controls for digestion by the proteases.
as §1

[2] = Stability towards proteases: blood extract; assay type: in vitro ADME; conditions: 75 μg of oligomer, 5 μl of lysed blood, protease buffer, 37° C., 3 hours; note: key: '+' denotes stability; no enzymic degradation
Description: as §2, §1

S1 nuclease = biological target: T1, S1 nuclease (Aspergillus oryzae, UniProt P24021); experiment: Stability towards nucleases: S1 nuclease; assay type: in vitro ADME; conditions: 75 μg of oligomer, 5 μl of nuclease (40 units), 37° C., 3 hours; PAGE, UV shadowing; note: key: '+' denotes stability; no enzymic degradation
T1 sequence (P24021 21-287): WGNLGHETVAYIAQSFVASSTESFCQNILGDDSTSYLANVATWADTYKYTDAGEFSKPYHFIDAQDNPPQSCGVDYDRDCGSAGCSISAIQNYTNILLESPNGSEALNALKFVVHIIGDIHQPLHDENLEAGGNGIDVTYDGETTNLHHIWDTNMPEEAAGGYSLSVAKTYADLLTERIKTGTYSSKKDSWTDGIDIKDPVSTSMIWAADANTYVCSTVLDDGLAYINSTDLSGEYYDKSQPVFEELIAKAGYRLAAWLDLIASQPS
Description: (§3) Subsequently, the gel was analysed by UV shadowing. […] The oligomers are stable towards the nucleases and cell extracts which were tested.

Bal31 nuclease = experiment: Stability towards nucleases: Bal31 nuclease; assay type: in vitro ADME; conditions: 75 μg of oligomer, 5 μl of nuclease (40 units), 37° C., 3 hours; PAGE, UV shadowing; note: key: '+' denotes stability; no enzymic degradation
Description: as §3

[3] = Stability towards nucleases: T-lymphocyte extract; assay type: in vitro ADME; conditions: 75 μg of oligomer, nuclease buffer, 37° C., 3 hours; note: key: '+' denotes stability; no enzymic degradation
Description: (§4) Cell extracts from T-lymphocytes and blood were also employed for the stability investigations in addition to the purified, defined nucleases. For this purpose, 50 ml of cell suspension were centrifuged down at 2000 rpm, taken up in 500 μl of Tris/HCl buffer, pH 7.5; 40 mM CaCl2, and lysed with 5 μl of 20% SDS. Following dialysis against 0.1 M Tris/HCl, pH 7.5; 40 mM CaCl2, and a change of buffer after 4 hours, 5 μl were employed directly in the test. Blood was employed directly following lysis with doubly distilled H2 O. A 25mer oligonucleotide diester was employed as the positive control for digestion by the nucleases.
as §3

[4] = Stability towards nucleases: blood; assay type: in vitro ADME; conditions: 75 μg of oligomer, lysed blood, nuclease buffer, 37° C., 3 hours; note: key: '+' denotes stability; no enzymic degradation
Description: as §4, §3

[5] = Stability of nucleic acid-binding oligomers towards proteases and nucleases (overall statements); assay type: in vitro ADME; conditions: 37° C., 3 hours
Description: For this purpose, the nucleic acid-binding oligomers were treated-with non-specific and specific proteases, such as, for example, pronase E, proteinase K, trypsin, endoprotease Lys.C, V8 protease, protease IX and protease XXI, nucleases, such as, for example, S1 nuclease and Ba131 nuclease, phosphodiesterase, and cell extracts and organ extracts and blood serum and blood extracts which contain various nucleases and proteases. The oligomers were examined for degradation by polyacrylamide gel electrophoresis and UV shadowing on TLC plates containing UV indicator and by silver-staining the polyacrylamide gels.
as §2, with “the proteases. […]” for “the proteases.”

[6] = tested on: double-stranded plasmid DNA containing two poly-adenine sequence regions; experiment: Strand displacement in double-stranded plasmid DNA; conditions: S1 nuclease digestion at high salt concentrations
Description: Double-stranded, circular plasmid DNA, which is of 4880 base pairs in length and which contains two poly-adenine sequence regions having at least nine consecutive adenine nucleotides, which sequence regions are at a distance apart of 1150 base pairs, is used in the tests described here.
Subsequently, 4 μl of buffer (250 mM Na acetate, 1 M NaCl, 2.5% glycerol, 5 mM ZnCl2, pH 4.4) were added to all the samples while 1 μl of S1 nuclease from Aspergillus oryzae (from Boehringer Mannheim), having an activity of 10 U/μl, was added to each of samples 2 to 6. After having been incubated at 30° C. for 15 minutes, the samples were placed on ice, 1 μl of 0.5 M EDTA and 3 μl of loading buffer (50% glycerol, 0.25% bromophenol blue in 40 mM Tris/HCl, 20 mM sodium acetate, 1 mM EDTA, pH=7.2) were added, and, without delay, the samples were fractionated electrophoretically on 1.2% agarose gels and, after staining with ethidium bromides, the sizes of the resulting plasmid fragments on the gel were determined by comparison with a molecular weight standard (1-kb ladder, from Gibco-BRL, D-7514 Eggenstein) on a transilluminator using 254 nm UV light.

Proteinase K, sequence (P06873 106-384): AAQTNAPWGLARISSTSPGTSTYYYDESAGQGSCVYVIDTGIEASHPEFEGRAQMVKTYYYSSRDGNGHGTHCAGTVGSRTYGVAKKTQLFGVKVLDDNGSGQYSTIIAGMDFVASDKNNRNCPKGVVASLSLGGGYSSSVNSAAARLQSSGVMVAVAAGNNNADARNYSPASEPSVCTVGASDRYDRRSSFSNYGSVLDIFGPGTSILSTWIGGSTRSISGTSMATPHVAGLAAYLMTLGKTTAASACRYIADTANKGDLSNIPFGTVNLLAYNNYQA

Row | Substance | Stability towards Proteinase K (Proteinase K) | Stability towards Pronase E (Pronase E) | Stability towards Trypsin (Trypsin) | Stability towards Endoprotease LYS--C (Endoprotease LYS--C) | Stability towards Protease XXI (Protease XXI) | Stability towards Protease IX (Protease IX) | Stability towards extracts of T-lymphocyte cells (HUT, U 937), protease test [1] | Stability towards extract of blood, protease test [2] | Stability towards S1 nuclease (S1 nuclease) | Stability towards Bal31 nuclease (Bal31 nuclease) | Stability towards T-lymphocyte extract, nuclease test [3] | Stability towards blood, nuclease test [4] | Stability towards the proteases and cell extracts which were tested [5] | Binding to double-stranded DNA (strand displacement), result in words [6]
1 | H--(III T)8 --Ala--OH [H-(IIIT)8 -Ala--OH] | + | + | + | + | + | + | + | + | + | + | + | + | stable | –
2 | H--(III T)12 --Lys--OH [H-(IIIT)12 -Lys--OH] | + | + | + | + | + | + | + | + | + | + | + | + | stable | concentration-dependent and sequence-selective binding
